Experimental data taken from US20230050846A1, “TREATMENT OF HEPATIC AND CARDIOVASCULAR DISORDERS” (LIFESEARCH, priority 2019, published 2023).
Read-outs that look alike come from different tables or passages of the source. Peptide text beside a SMILES is read from it. * marks the point of attachment. Palmitoyl = CCCCCCCCCCCCCCCC(=O)*

How the values were obtained:
HepG2 cells [1] = experiment: Oleate/palmitate-induced steatosis, intracellular triglyceride content; type: cell-based, human; conditions: 1 μM, last 24 h of 48 h oleate/palmitate 0.5 mM (2:1)
Description: A solution containing 250 mM palmitate (P0500, Sigma-Aldrich) was first prepared in 0.1 M NaOH at 70 C for 30 min then diluted in DMEM low glucose (D5546, Sigma-Aldrich) containing 10% fatty acid-free BSA (A7030, Sigma-Aldrich) to yield a 10 mM palmitate solution and allowed to dissolve for 30 min at 37° C., filter sterilized and stored in glass vial at −20 C until use. This palmitate stock solution and ready to use oleate solution (03008, Sigma-Aldrich) were used to prepared a 0.5 mM solution at a 2:1 ratio of oleate to palmitate in complete culture medium containing DMEM low glucose, 10% fetal bovine serum, 1% Penicillin-Streptomycin and 1% fatty acid-free BSA.
HepG2 cell were grown in 12-well plates to 60-70% confluence then exposed for 48 h to culture medium (DMEM low glucose, 10% fetal bovine serum, 1% Penicillin-Streptomycin and 1% fatty acid-free BSA) alone or containing 0.5 mM oleate/palmitate mixture (2:1) to induce steatosis. For the last 24 h of the 48 h period, cells were treated with 1 μM of the peptide of formula (I) or the peptide of formula (II).
For measurement of intracellular triglyceride content, cells were washed with PBS and scraped in 5% NP-40 lysis buffer and heated for 10 min at 85° C. Triglycerides were then quantified using triglyceride commercial kit (Biolabo #87319). Values were normalized to protein concentration in cell lysates.

HepG2 cells [2] = experiment: HDL endocytosis assay in hepatocytes; type: cell-based, human; conditions: 1 μM; HDL-Alexa568 50 μg/mL, 25 min; abolished by IF1 1 μM
Description: HepG2 cells were seeded on 96-well plates at 50,000 cells/well. HDL3 (d 1.12-1.21) were isolated from plasma of healthy human donors and referred to as HDL. HDL was fluorescently labeled with AlexaFluor®568 dye (A10238, Thermofisher Scientific) according the instructions of manufacturer. 1 h30 before the assay, the cells were serum starved for 1 h30 in order to stabilize nucleotide secretion. Cells were incubated with inhibitors (H49K, 1 μM) for 10 min before treatment with the different peptides (1 μM) or apoA-I (10 μg/ml) purified from human plasma. 5 min after peptide treatment, endocytosis was initiated by 50 μg/mL of AlexaFluor568®-labelled HDL. The same experiment was performed with a […] excess of unlabelled HDL (2.5 mg/mL) to determine the nonspecific fluorescence signal. After 25 min at 37° C., cells were then washed in serum-free DMEM and extracellular membrane-bound HDL was disassociated by incubating cells at 4° C. in serum-free DMEM for 90 min. Following washes, cells were lysate in NaOH 0.1M SDS 1% during 2 h, lysates were transferred in a black 96-wells plate and fluorescence was recorded at 568 nm (Varioscan flash). Fluorescence for each condition was substrate with the value obtained in unlabelled HDL condition, and results were expressed as the fold change as compared with the basal condition (untreated cells).

[3] = Stability in plasma and serum (LC-HRMS); type: in vitro ADME, human and mouse; conditions: 37° C.
Description: Peptide of Formula (I) or peptide of Formula (II) were prepared at a concentration of 200 μg/mL in PBS or mixed with EDTA plasma or serum from human (Etablissement Frangais du Sang, EFS) or mouse (C57BL/6J, cardiac puncture). Aliquots from PBS samples (40 μL) were incubated at 4° C. or 37° C. for 0, 1, 2 and 4 weeks. Aliquots from plasma and serum samples (50 μL) were incubated at 4° C. or 37° C. for 0, 1, 2, 4, 6, 12, 24 h.
A mixed solution of peptides of formula (I) and (II) was constituted and serially diluted in PBS to obtain seven standard solutions, ranging from 200 μg/mL to 0.2 μg/mL. In parallel, a mixed solution of labelled peptides of Formula (I) and (II) (Thermo Scientific, Biopolymers Darmstadt, Germany) was prepared in PBS at 100 μg/mL. The mixed solution of labelled peptides (25 μL) was added to 25 μL of standard solutions as well as to PBS, plasma and serum samples. Acetonitrile (150 μL) was added to each sample to precipitate plasma/serum proteins. After centrifugation (10,000×g, 4° C., 10 min), the clear supernatants (150 μL) were dried under a gentle stream of nitrogen (45° C.), reconstituted with 10% acetonitrile containing 0.1% formic acid (100 μL), and injected into the liquid chromatography-high-resolution mass spectrometry (LC-HRMS) system. LC-HRMS analyses were performed on an H-Class UPLC system (Waters Corporation, Milford, Mass., USA) by injection of 10 μL of samples onto an Acquity® Peptide CSH C18 column (2.1 mm×150 mm, 1.7 μm; Waters Corporation) held at 60° C. The mobile phase was composed of 5% acetonitrile as solvent A and 100% acetonitrile as solvent B, each containing 0.1% formic acid. The elution was carried out using a gradient of solvent B in solvent A over 20 min at a constant flow rate of 250 μL/min. […] HRMS detection was performed by a Synapt G2 HRMS Q-TOF mass spectrometer equipped with a Z-Spray interface for electrospray ionization (Waters Corporation). The resolution mode was applied in a mass-to-charge (m/z) ratio ranging from 200 to 4,000 at a mass resolution of 25,000 Full Width Half Maximum in the positive ionization mode. Ionization parameters were as follow: capillary voltage of 3 kV, cone voltage of 30 V, desolvatation gas flow of 900 L/hr, source temperature of 120° C., desolvatation temperature of 450° C., Nitrogen as desolvatation gas. Data were collected in the continuum mode at a rate of four spectra per second. […] Peptides were analyzed according to their major exact m/z (i 5 ppm, Table 1) and each peptide signal was normalized with that of its labelled internal standard. Peptide concentrations were calculated using calibration curves plotted from standard solutions (linear regression, 1/x weighted, origin excluded).

[4] = EDTA plasma, read-out: recovery of the peptide in plasma
[5] = serum, read-out: recovery of the peptide in serum

Row | recovery at 24 h, 200 μg/mL [3, 4] | recovery at 24 h, 200 μg/mL [3, 5] | Compound | reduction of fatty acid-induced intracellular accumulation of triglycerides compared to PBS control (HepG2 cells [1]) | effect on HDL endocytosis (HepG2 cells [2])
1 | 50% | 100% | CCCCCCCCCCCCCCCC(=O)NCCCC[C@H](NC(=O)[C@H](CCC(=O)O)NC(=O)[C@H](CCCNC(=N)N)NC(=O)[C@H](CO)NC(=O)[C@H](CCC(N)=O)NC(=O)[C@H](C)NC(=O)[C@H](CCCNC(=N)N)NC(=O)[C@H](Cc1ccccc1)NC(=O)[C@H](Cc1ccc(O)cc1)NC(=O)[C@H](CCCNC(=N)N)NC(=O)[C@H](CCC(=O)O)NC(=O)[C@H](CCC(=O)O)NC(=O)[C@H](CCC(=O)O)NC(=O)[C@H](C)NC(=O)[C@H](CCC(N)=O)NC(=O)[C@H](CCC(=O)O)NC(=O)[C@H](CCCNC(=N)N)NC(=O)[C@H](CCCCN)NC(=O)CNC(=O)[C@H](Cc1ccccc1)NC(=O)[C@H](C)NC(=O)CNC(=O)CNC(=O)[C@H](C)NC(=O)[C@H](CCC(=O)O)NC(=O)[C@H](CCCNC(=N)N)NC(=O)[C@@H](NC(=O)[C@H](CO)NC(=O)CNC(=O)[C@H](C)NC(=O)CNC(=O)[C@H](CCCNC(=N)N)NC(C)=O)[C@@H](C)CC)C(N)=O [peptide of formula (II), CH3CO-[SEQ ID NO: 1]-K-[palmitoyl]-NH2] (Ac-RGAGSIREAGGAFGKREQAEEERYFRAQSREK(Palmitoyl)-NH2) | 32% | stimulated
2 | 10% | 30% | Ac-RGAGSIREAGGAFGKREQAEEERYFRAQSRE-NH2 [peptide of formula (I), CH3CO-[SEQ ID NO: 1]-NH2] | 18% | stimulated
